Experimental findings from patent publication US20260124214A1, “HETEROCYCLIC COMPOUNDS FOR USE IN THE TREATMENT OF CANCER” (ARTIOS PHARMA LIMITED, priority 2021, published 2026) are described below.

pKi: −log10 of the molar value. Where a name gives a salt, the structure may show the parent alone.

The pKi is the negative decadic logarithm of the Ki, by convention in mol/L. Low values mean a large Ki, high ones a small Ki.

This test concerns the target T1, Human Polθ polymerase domain (aa1820-2590) (Homo sapiens, UniProt O75417).
T1 construct: Human Polθ polymerase domain (aa1820-2590) was expressed in E. Coli; made in house; host or cells: E. coli
T1 sequence (O75417 1820-2590): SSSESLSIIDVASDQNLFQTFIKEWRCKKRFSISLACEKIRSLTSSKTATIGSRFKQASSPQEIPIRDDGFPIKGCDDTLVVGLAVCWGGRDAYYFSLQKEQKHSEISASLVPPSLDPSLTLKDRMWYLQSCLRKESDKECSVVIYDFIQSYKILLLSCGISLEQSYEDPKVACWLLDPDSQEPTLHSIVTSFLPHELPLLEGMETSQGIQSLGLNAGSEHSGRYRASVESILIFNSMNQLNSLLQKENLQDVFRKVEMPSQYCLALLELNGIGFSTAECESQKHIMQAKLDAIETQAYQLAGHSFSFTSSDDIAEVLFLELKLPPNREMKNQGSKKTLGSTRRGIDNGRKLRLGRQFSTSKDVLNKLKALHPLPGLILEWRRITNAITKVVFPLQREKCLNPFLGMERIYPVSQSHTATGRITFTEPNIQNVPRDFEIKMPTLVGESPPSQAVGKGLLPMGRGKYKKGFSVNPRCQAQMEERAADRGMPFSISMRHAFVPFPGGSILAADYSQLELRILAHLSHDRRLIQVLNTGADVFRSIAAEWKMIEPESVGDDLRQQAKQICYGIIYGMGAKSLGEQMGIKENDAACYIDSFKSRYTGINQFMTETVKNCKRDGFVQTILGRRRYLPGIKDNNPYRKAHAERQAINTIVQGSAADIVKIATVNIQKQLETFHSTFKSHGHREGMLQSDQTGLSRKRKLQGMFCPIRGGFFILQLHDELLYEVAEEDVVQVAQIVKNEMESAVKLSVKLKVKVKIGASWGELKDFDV
The experiment in a line: Polθ Polymerase Domain WT KI Assay (PicoGreen). The class given is biochemical. The note with it: 100 nM DNA substrate, 0.156 nM Polθ, initial rates vs inhibitor concentration. The essentials: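 E. coli-expressed human Polθ polymerase domain (aa1820-2590) on annealed DNA II Short/Long primer-template (1.2:1), in 25 mM Tris pH 7.5, NaCl, 5% glycerol, 0.01% Triton X-100, 0.1 mg/ml BSA, 1 mM DTT, 1% DMSO. EDTA-quenched timepoints to 180 min, PicoGreen fluorescence. Initial rates vs inhibitor concentration fitted four-parameter for KI.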
Take `Cc1cc(C(F)(F)F)cc(N2C(=O)C[C@@H]3CN(CCN4CCN(C)CC4)c4c(Cl)cc(F)cc4N(C)C(=O)[C@H]32)n1` [Example 8, (3aR,11aS)-6-Chloro-8-fluoro-10-methyl-1-(6-methyl-4-(trifluoromethyl)pyridin-2-yl)-5-(2-(4-methylpiperazin-1-yl)ethyl)-1,3a,4,5,10,11a-hexahydro-2H-benzo[b]pyrrolo[2,3-f][1,4]diazocine-2,11(3H)-dione]: the pKi is 8.36.

Regarding `Cc1cc(C(F)(F)F)cc(N2C(=O)C[C@@H]3CN(CCN4CCN[C@H](C)C4)c4c(Cl)cccc4N(C)C(=O)[C@H]32)n1` [Example 9, (3aR,11aS)-6-Chloro-10-methyl-1-(6-methyl-4-(trifluoromethyl)pyridin-2-yl)-5-(2-((R)-3-methylpiperazin-1-yl)ethyl)-1,3a,4,5,10,11a-hexahydro-2H-benzo[b]pyrrolo[2,3-f][1,4]diazocine-2,11(3H)-dione], the negative logarithm of the Ki (pKi) is 8.85.

The molecule `Cc1cc(C(F)(F)F)cc(N2C(=O)C[C@@H]3CN(CCN4CCN(C)C[C@@H]4C)c4c(Cl)cccc4N(C)C(=O)[C@H]32)n1` [Example 10, (3aR,11aS)-6-Chloro-5-(2-((S)-2,4-dimethylpiperazin-1-yl)ethyl)-10-methyl-1-(6-methyl-4-(trifluoromethyl)pyridin-2-yl)-1,3a,4,5,10,11a-hexahydro-2H-benzo[b]pyrrolo[2,3-f][1,4]diazocine-2,11(3H)-dione Hydrochloride] gave a pKi of 8.66.

`CC(=O)N1CCN(CCN2C[C@H]3CC(=O)N(c4cc(C(F)(F)F)cc(C)n4)[C@@H]3C(=O)N(C)c3cccc(Cl)c32)[C@@H](C)C1` [Example 11, (3aR,11aS)-5-(2-((S)-4-Acetyl-2-methylpiperazin-1-yl)ethyl)-6-chloro-10-methyl-1-(6-methyl-4-(trifluoromethyl)pyridin-2-yl)-1,3a,4,5,10,11a-hexahydro-2H-benzo[b]pyrrolo[2,3-f][1,4]diazocine-2,11(3H)-dione]: the pKi was 8.82.

As for `Cc1cc(C(F)(F)F)cc(N2C(=O)C[C@@H]3CN(CCN4CCN(C)CC4)c4ccccc4N(C)C(=O)[C@H]32)n1` [Example 13, (3aR,11aS)-10-Methyl-1-(6-methyl-4-(trifluoromethyl)pyridin-2-yl)-5-(2-(4-methylpiperazin-1-yl)ethyl)-1,3a,4,5,10,11a-hexahydro-2H-benzo[b]pyrrolo[2,3-f][1,4]diazocine-2,11(3H)-dione dihydrochloride], the pKi was 7.29.

Turning to `Cc1cc(C(F)(F)F)cc(N2C(=O)C[C@@H]3CN(CCN4CC5(CCO5)C4)c4c(C)cccc4N(C)C(=O)[C@H]32)n1` [Example 14, (3aR,11aS)-5-(2-(1-Oxa-6-azaspiro[3.3]heptan-6-yl)ethyl)-6,10-dimethyl-1-(6-methyl-4-(trifluoromethyl)pyridin-2-yl)-1,3a,4,5,10,11a-hexahydro-2H-benzo[b]pyrrolo[2,3-f][1,4]diazocine-2,11(3H)-dione], the pKi was 9.12.

As to `Cc1cc(C(F)(F)F)cc(N2C(=O)C[C@@H]3CN(CCN4CCN(C)[C@H](CO)C4)c4c(C)cccc4N(C)C(=O)[C@H]32)n1` [Example 15, (3aR,11aS)-5-(2-((S)-3-(Hydroxymethyl)-4-methylpiperazin-1-yl)ethyl)-6,10-dimethyl-1-(6-methyl-4-(trifluoromethyl)pyridin-2-yl)-1,3a,4,5,10,11a-hexahydro-2H-benzo[b]pyrrolo[2,3-f][1,4]diazocine-2,11(3H)-dione], the pKi is 8.91.

As to `Cc1cc(C(F)(F)F)cc(N2C(=O)C[C@@H]3CN(CCN4CCNCC4)c4c(C)cccc4N(C)C(=O)[C@H]32)n1` [Example 16, (3aR,11aS)-6,10-Dimethyl-1-(6-methyl-4-(trifluoromethyl)pyridin-2-yl)-5-(2-(piperazin-1-yl)ethyl)-1,3a,4,5,10,11a-hexahydro-2H-benzo[b]pyrrolo[2,3-f][1,4]diazocine-2,11(3H)-dione], the pKi is 8.92.

`CNCCNCCN1C[C@H]2CC(=O)N(c3cc(C(F)(F)F)cc(C)n3)[C@@H]2C(=O)N(C)c2cccc(C)c21` [Example 17, (3aR,11aS)-6,10-Dimethyl-1-(6-methyl-4-(trifluoromethyl)pyridin-2-yl)-5-(2-((2-(methylamino)ethyl)amino)ethyl)-1,3a,4,5,10,11a-hexahydro-2H-benzo[b]pyrrolo[2,3-f][1,4]diazocine-2,11(3H)-dione]: the pKi was 8.61.

With `Cc1cc(C(F)(F)F)cc(N2C(=O)C[C@@H]3CN(CCO)c4c(F)cccc4N(C)C(=O)[C@H]32)n1` [Example 18, (3aR,11aS)-6-Fluoro-5-(2-hydroxyethyl)-10-methyl-1-(6-methyl-4-(trifluoromethyl)pyridin-2-yl)-1,3a,4,5,10,11a-hexahydro-2H-benzo[b]pyrrolo[2,3-f][1,4]diazocine-2,11(3H)-dione], the pKi was 7.78.

Molecule `Cc1cc(C(F)(F)F)cc(N2C(=O)C[C@@H]3CN(CCN4CCNCC4)c4c(Cl)cccc4N(C)C(=O)[C@H]32)n1` [Example 19, (3aR,11aS)-6-Chloro-10-methyl-1-(6-methyl-4-(trifluoromethyl)pyridin-2-yl)-5-(2-(piperazin-1-yl)ethyl)-1,3a,4,5,10,11a-hexahydro-2H-benzo[b]pyrrolo[2,3-f][1,4]diazocine-2,11(3H)-dione] had a negative-log Ki (pKi) of 8.73.

The molecule `Cc1cc(C(F)(F)F)cc(N2C(=O)C[C@@H]3CN(CCN4CCOCC4)c4c(Cl)cccc4N(C)C(=O)[C@H]32)n1` [Example 20, (3aR,11aS)-6-Chloro-10-methyl-1-(6-methyl-4-(trifluoromethyl)pyridin-2-yl)-5-(2-morpholinoethyl)-1,3a,4,5,10,11a-hexahydro-2H-benzo[b]pyrrolo[2,3-f][1,4]diazocine-2,11(3H)-dione] gave a pKi of 8.74.

`CCN(CC)CCN1C[C@H]2CC(=O)N(c3cc(C(F)(F)F)cc(C)n3)[C@@H]2C(=O)N(C)c2cccc(Cl)c21` [Example 21, (3aR,11aS)-6-Chloro-5-(2-(diethylamino)ethyl)-10-methyl-1-(6-methyl-4-(trifluoromethyl)pyridin-2-yl)-1,3a,4,5,10,11a-hexahydro-2H-benzo[b]pyrrolo[2,3-f][1,4]diazocine-2,11(3H)-dione] had a pKi of 8.00.

Take `Cc1cc(C(F)(F)F)cc(N2C(=O)C[C@@H]3CN(CCN4CCC(F)(F)CC4)c4c(Cl)cccc4N(C)C(=O)[C@H]32)n1` [Example 22, (3aR,11aS)-6-Chloro-5-(2-(4,4-difluoropiperidin-1-yl)ethyl)-10-methyl-1-(6-methyl-4-(trifluoromethyl)pyridin-2-yl)-1,3a,4,5,10,11a-hexahydro-2H-benzo[b]pyrrolo[2,3-f][1,4]diazocine-2,11(3H)-dione]: the negative-log Ki (pKi) is 8.75.

`Cc1cc(C(F)(F)F)cc(N2C(=O)C[C@@H]3CN(CCN4CCC(F)(F)C4)c4c(Cl)cccc4N(C)C(=O)[C@H]32)n1` [Example 23, (3aR,11aS)-6-Chloro-5-(2-(3,3-difluoropyrrolidin-1-yl)ethyl)-10-methyl-1-(6-methyl-4-(trifluoromethyl)pyridin-2-yl)-1,3a,4,5,10,11a-hexahydro-2H-benzo[b]pyrrolo[2,3-f][1,4]diazocine-2,11(3H)-dione] gave a negative logarithm of the Ki (pKi) of 8.83.

Turning to `Cc1cc(C(F)(F)F)cc(N2C(=O)C[C@@H]3CN(CCN4CCOC[C@H]4C)c4c(Cl)cccc4N(C)C(=O)[C@H]32)n1` [Example 24, (3aR,11aS)-6-Chloro-10-methyl-1-(6-methyl-4-(trifluoromethyl)pyridin-2-yl)-5-(2-((R)-3-methylmorpholino)ethyl)-1,3a,4,5,10,11a-hexahydro-2H-benzo[b]pyrrolo[2,3-f][1,4]diazocine-2,11(3H)-dione], the negative-log Ki (pKi) was 8.75.

For the molecule `Cc1cc(C(F)(F)F)cc(N2C(=O)C[C@@H]3CN(CCN4CCOC[C@@H]4C)c4c(Cl)cccc4N(C)C(=O)[C@H]32)n1` [Example 25, (3aR,11aS)-6-Chloro-10-methyl-1-(6-methyl-4-(trifluoromethyl)pyridin-2-yl)-5-(2-((S)-3-methylmorpholino)ethyl)-1,3a,4,5,10,11a-hexahydro-2H-benzo[b]pyrrolo[2,3-f][1,4]diazocine-2,11(3H)-dione], the pKi is 9.15.

Molecule `Cc1cc(C(F)(F)F)cc(N2C(=O)C[C@@H]3CN(CCN4CCN(CCF)CC4)c4c(Cl)cccc4N(C)C(=O)[C@H]32)n1` [Example 26, (3aR,11aS)-6-Chloro-5-(2-(4-(2-fluoroethyl)piperazin-1-yl)ethyl)-10-methyl-1-(6-methyl-4-(trifluoromethyl)pyridin-2-yl)-1,3a,4,5,10,11a-hexahydro-2H-benzo[b]pyrrolo[2,3-f][1,4]diazocine-2,11(3H)-dione] showed a pKi of 8.57.
